Measurements from the supplement of paper PMC9663587.

Assays:
[1] = compound: CC(=O)Nc1cccc(-n2c(=O)n(C3CC3)c(=O)c3c(Nc4ccc(I)cc4F)n(C)c(=O)c(C)c32)c1
Ipatasertib/GDC0068 = compound: CC(C)NC[C@@H](C(=O)N1CCN(c2ncnc3c2[C@H](C)C[C@H]3O)CC1)c1ccc(Cl)cc1 [Ipatasertib/GDC0068]
[2] = compound: CCC1=CN=CN=C1N2CCN(CC2)CC3=NC4=C(N3)C=C(C=C4)C(F)(F)F
[3] = compound: CCN1CCN(Cc2ccc(Nc3ncc(F)c(-c4cc(F)c5nc(C)n(C(C)C)c5c4)n3)nc2)CC1
BSJ-01-175 = compound: CN(C)C/C=C/C(=O)Nc1ccc(O[C@@H]2CCC[C@@H](Nc3ncc(Cl)c(-c4c[nH]c5ccccc45)n3)C2)cc1 [BSJ-01-175]
AZD2014 = compound: CNC(=O)c1cccc(-c2ccc3c(N4CCOC[C@@H]4C)nc(N4CCOC[C@@H]4C)nc3n2)c1 [AZD2014]
[4] = compound: COc1ccc2c(c1)[C@]1(C[C@H]1c1ccc3c(/C=C/c4ccc(CN5C[C@@H](C)O[C@@H](C)C5)cc4)n[nH]c3c1)C(=O)N2
AZD6738 = compound: C[C@@H]1COCCN1c1cc(C2([S@](C)(=N)=O)CC2)nc(-c2cc[nH]c3nccc2-3)n1 [AZD6738]
AZD7762 = compound: NC(=O)Nc1cc(-c2cccc(F)c2)sc1C(=O)N[C@H]1CCCNC1 [AZD7762]
Vorinostat = compound: O=C(CCCCCCC(=O)Nc1ccccc1)NO [Vorinostat]
Tivantinib/ARQ197 = compound: O=C1NC(=O)[C@@H](c2cn3c4c(cccc24)CCC3)[C@@H]1c1c[nH]c2ccccc12 [Tivantinib/ARQ197]
BSJ-03-123 = compound: CC(=O)c1c(C)c2cnc(Nc3ccc(N4CCN(CCOCCOCCOCCNC(=O)COc5cccc6c5C(=O)N(C5CCC(=O)NC5=O)C6=O)CC4)cn3)nc2n(C2CCCC2)c1=O [BSJ-03-123]; experiment: increase in dead-cell fraction, 72 h; higher = more death;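 note: breast cancer cell lines in 384-well plates, stained with Hoechst plus LIVE/DEAD far red dye and imaged, cells above an LDR intensity threshold counted dead, Hoechst-negative corpses included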
[5] = compound: CC(=O)c1c(C)c2cnc(Nc3ccc(N4CCNCC4)cn3)nc2n(C2CCCC2)c1=O; experiment: as above
[6] = compound: CCN1CCN(Cc2ccc(Nc3ncc(F)c(-c4cc(F)c5nc(C)n(C(C)C)c5c4)n3)nc2)CC1; experiment: as above
Neratinib/HKI272 = compound: CCOc1cc2ncc(C#N)c(Nc3ccc(OCc4ccccn4)c(Cl)c3)c2cc1NC(=O)/C=C/CN(C)C [Neratinib/HKI272]; experiment: as above
[7] = compound: CCc1cnn2c(NCc3ccc[n+]([O-])c3)cc(N3CCCC[C@H]3CCO)nc12; experiment: as above
LEE011/Ribociclib = compound: CN(C)C(=O)c1cc2cnc(Nc3ccc(N4CCNCC4)cn3)nc2n1C1CCCC1 [LEE011/Ribociclib]; experiment: as above
THZ1 = compound: CN(C)C/C=C/C(=O)Nc1ccc(C(=O)Nc2cccc(Nc3ncc(Cl)c(-c4c[nH]c5ccccc45)n3)c2)cc1 [THZ1]; experiment: as above
Flavopiridol = compound: CN1CC[C@H](c2c(O)cc(O)c3c(=O)cc(-c4ccccc4Cl)oc23)[C@H](O)C1 [Flavopiridol]; experiment: as above
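Throughout, for GR50, 72 h: breast cancer and non-malignant breast epithelial cell lines, Deep Dye Drop or Dye Drop imaging, nine half-log doses, GR normalized to time-zero plates and DMSO-only controls.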

## HS578T
[1]
  GR50, 72 h: 0.00636 µM
Ipatasertib/GDC0068
  GR50, 72 h: 4.59 µM
[2]
  GR50, 72 h: > 10 µM
[3]
  GR50, 72 h: 0.0776 µM
BSJ-01-175
  GR50, 72 h: 0.0056 µM
AZD2014
  GR50, 72 h: 0.0683 µM
[4]
  GR50, 72 h: 0.00238 µM
AZD6738
  GR50, 72 h: 5.26 µM
AZD7762
  GR50, 72 h: 0.0151 µM
Vorinostat
  GR50, 72 h: 0.904 µM
Tivantinib/ARQ197
  GR50, 72 h: 0.337 µM
BSJ-03-123; 0.001 µM
  increase in dead-cell fraction: 0.0192
BSJ-03-123; 0.003162 µM
  increase in dead-cell fraction: 0.0459
BSJ-03-123; 0.01 µM
  increase in dead-cell fraction: 0.0053
BSJ-03-123; 0.03162 µM
  increase in dead-cell fraction: 0.0194
BSJ-03-123; 0.1 µM
  increase in dead-cell fraction: 0.0184
BSJ-03-123; 0.3162 µM
  increase in dead-cell fraction: 0.0238
BSJ-03-123; 1 µM
  increase in dead-cell fraction: 0.034
BSJ-03-123; 3.162 µM
  increase in dead-cell fraction: 0.0445
BSJ-03-123; 10 µM
  increase in dead-cell fraction: 0.267
[5]; 0.0003162 µM
  increase in dead-cell fraction: -0.0068
[5]; 0.001 µM
  increase in dead-cell fraction: 0.0083
[5]; 0.003162 µM
  increase in dead-cell fraction: 0.0012
[5]; 0.01 µM
  increase in dead-cell fraction: 0.0138
[5]; 0.03162 µM
  increase in dead-cell fraction: 0.0151
[5]; 0.1 µM
  increase in dead-cell fraction: 0.0427
[5]; 0.3162 µM
  increase in dead-cell fraction: 0.052
[5]; 1 µM
  increase in dead-cell fraction: 0.0736
[5]; 3.162 µM
  increase in dead-cell fraction: 0.116
[6]; 0.001 µM
  increase in dead-cell fraction: 0.0038
[6]; 0.003162 µM
  increase in dead-cell fraction: 0.0096
[6]; 0.01 µM
  increase in dead-cell fraction: 0.0242
[6]; 0.03162 µM
  increase in dead-cell fraction: 0.0401
[6]; 0.1 µM
  increase in dead-cell fraction: 0.0754
[6]; 0.3162 µM
  increase in dead-cell fraction: 0.0958
[6]; 1 µM
  increase in dead-cell fraction: 0.171
[6]; 3.162 µM
  increase in dead-cell fraction: 0.511
[6]; 10 µM
  increase in dead-cell fraction: 0.844
Neratinib/HKI272; 0.0003162 µM
  increase in dead-cell fraction: 0.0023
Neratinib/HKI272; 0.001 µM
  increase in dead-cell fraction: 0.0036
Neratinib/HKI272; 0.003162 µM
  increase in dead-cell fraction: 0.0026
Neratinib/HKI272; 0.01 µM
  increase in dead-cell fraction: 0.0046
Neratinib/HKI272; 0.03162 µM
  increase in dead-cell fraction: 0.0039
Neratinib/HKI272; 0.1 µM
  increase in dead-cell fraction: 0.0039
Neratinib/HKI272; 0.3162 µM
  increase in dead-cell fraction: 0.0303
Neratinib/HKI272; 1 µM
  increase in dead-cell fraction: 0.061
Neratinib/HKI272; 3.162 µM
  increase in dead-cell fraction: 0.5
[7]; 0.0001 µM
  increase in dead-cell fraction: 0.0032
[7]; 0.0003162 µM
  increase in dead-cell fraction: -0.0013
[7]; 0.001 µM
  increase in dead-cell fraction: 0.0026
[7]; 0.003162 µM
  increase in dead-cell fraction: 0.0085
[7]; 0.01 µM
  increase in dead-cell fraction: 0.187
[7]; 0.03162 µM
  increase in dead-cell fraction: 0.415
[7]; 0.1 µM
  increase in dead-cell fraction: 0.441
[7]; 0.3162 µM
  increase in dead-cell fraction: 0.423
[7]; 1 µM
  increase in dead-cell fraction: 0.443
LEE011/Ribociclib; 0.001 µM
  increase in dead-cell fraction: 0.0899
LEE011/Ribociclib; 0.003162 µM
  increase in dead-cell fraction: 0.0789
LEE011/Ribociclib; 0.01 µM
  increase in dead-cell fraction: 0.105
LEE011/Ribociclib; 0.03162 µM
  increase in dead-cell fraction: 0.0986
LEE011/Ribociclib; 0.1 µM
  increase in dead-cell fraction: 0.196
LEE011/Ribociclib; 0.3162 µM
  increase in dead-cell fraction: 0.2
LEE011/Ribociclib; 1 µM
  increase in dead-cell fraction: 0.245
LEE011/Ribociclib; 3.162 µM
  increase in dead-cell fraction: 0.248
LEE011/Ribociclib; 10 µM
  increase in dead-cell fraction: 0.243
THZ1; 0.0001 µM
  increase in dead-cell fraction: -0.0022
THZ1; 0.0003162 µM
  increase in dead-cell fraction: 0.0144
THZ1; 0.001 µM
  increase in dead-cell fraction: 0.0176
THZ1; 0.003162 µM
  increase in dead-cell fraction: -0.0036
THZ1; 0.01 µM
  increase in dead-cell fraction: 0
THZ1; 0.03162 µM
  increase in dead-cell fraction: 0.11
THZ1; 0.1 µM
  increase in dead-cell fraction: 0.174
THZ1; 0.3162 µM
  increase in dead-cell fraction: 0.216
THZ1; 1 µM
  increase in dead-cell fraction: 0.22
Flavopiridol; 0.0001 µM
  increase in dead-cell fraction: 0.0048
Flavopiridol; 0.0003162 µM
  increase in dead-cell fraction: -0.0091
Flavopiridol; 0.001 µM
  increase in dead-cell fraction: 0.0178
Flavopiridol; 0.003162 µM
  increase in dead-cell fraction: -0.0177
Flavopiridol; 0.01 µM
  increase in dead-cell fraction: 0.0333
Flavopiridol; 0.03162 µM
  increase in dead-cell fraction: -0.0109
Flavopiridol; 0.1 µM
  increase in dead-cell fraction: 0.0094
Flavopiridol; 0.3162 µM
  increase in dead-cell fraction: 0.0312
Flavopiridol; 1 µM
  increase in dead-cell fraction: 0.288
